“And” between values parts separate entries of the source, which are not always exact repeats. Equal values may be shown once.
Key:
[1] = Metabolism and renal excretion of [18F]FACH in piglets (radio-HPLC, graphical analysis)
Experimental: Radio-metabolites were analyzed by analytical and semi-preparative HPLC on a JASCO LC-2000 system (JASCO Labor- und Datentechnik, Gross-Umstadt, Germany), consisting of a PU-2080 Plus pump, AS-2055 Plus auto injector (100 μL sample loop) or a manual injection valve with a 5 mL sample loop, and a UV-2070 Plus detector coupled with a gamma radioactivity HPLC detector (Gabi Star, Raytest Isotopenmessgeräte GmbH, Straubenhardt, Germany). Data analysis was performed with the Galaxie chromatography software (Agilent Technologies, Santa Clara, CA, USA). […] For analytical and semi-preparative radio-HPLC analyses, Reprosil-Pur columns (C18-AQ 250 × 4.6 mm; 5 μm; and C18-AQ 150 × 4.6 mm; 10 μm; Dr. Maisch HPLC GmbH; Ammerbuch-Entringen, Germany) were used. Acetonitrile (ACN) mixed with a 20 mM aqueous solution of ammonium acetate (NH4OAc) was used as eluent.
In corresponding piglet studies (n = 5), plasma was separated from the arterial blood samples drawn during the PET recordings at certain time points.
In piglet studies, similar procedures were implemented for preparing samples from plasma collected at 15, 30, 45 and 60 min p.i., with the exception of collecting the urine sample only at 60 min p.i. Additionally, in order to measure the radio-metabolites in the piglet kidney, the tissue was resected at 60 min p.i. and after washing in PBS, samples of the kidney cortex and medulla were isolated and homogenized in demineralized water (2 mL/g tissue) using a borosilicate glass mortar with ten strokes of a PTFE plunger at 1000 rpm (Potter S, Homogenizer, B. Braun Biotech, Sartorius AG, Göttingen, Germany). Protein precipitation was performed by addition of ice-cold ACN/H2O at a ratio of 4:1 (v/v) of organic solvent to each tissue sample. The samples were vortexed for 3 min, placed on ice for 3 min, and the suspensions were centrifuged at 12,000 rpm at 4 °C for 5 min. For the second extraction, the precipitates were washed with 200 μL of the solvent mixture and subjected to the same procedure. The combined supernatants (total volume between 68 mL) were concentrated at 70 °C under argon flow to a final volume of approximately 2 mL and analyzed by semi-preparative RP radio-HPLC. […] The analyses were performed in gradient mode using 10% ACN/20 mM NH4OAc (aq.) as eluent A and 90% ACN/20 mM NH4OAc (aq.) as eluent B under the following conditions:
To determine the percentage of the radioactivity in the supernatants compared to the total radioactivity aliquots were taken at each step and, as well as the precipitates, quantified by gamma counting.
By interpolation of the measured radio-metabolite fractions from the piglet PET studies, the continuous TACs for [^18F]FACH and its radio-metabolites were calculated. Subsequently, the magnitudes of the whole body rate constant for [^18F]FACH metabolism (k0) and the elimination rate constant for the radio-metabolites (k−1) under control and pre-treated conditions were calculated as described previously [32]. Graphical analysis of the integrals of the plasma time-concentration series of PET tracers and their radio-metabolite(s) follow a linear relationship [32, 47], where the ordinate intercept is equal to the whole body fractional rate constant for the metabolism of the parent, designated k0 (min^−1). The linear regression slope corresponds to the fractional rate constant for the elimination of the radio-metabolite from circulation, designated k−1 (min^−1), which indicates the renal clearance of the radio-metabolite.

MCTs [2] = experiment: Compartmental kinetic modelling of PET data in mice; assay type: in vivo, mouse; conditions: for K1 / VT / k2: 1-TCM; for K1 (representative 1-TCM curve fit) / k2 (representative 1-TCM curve fit): control study, Figure S12
Experimental: (§1) Table 4 includes the results of 1-tissue-compartment kinetic modelling (1-TCM) of [^18F]FACH in the kidney cortex and the liver of the control and pre-treated mouse groups (α-CCA-Na and reference compound). […] The BPND was estimated as the ratio of [VT(control)/VT(pre-treatment)] − 1.
(§2) Kinetic analysis of reconstructed datasets was performed with PMOD software. First, image derived arterial input functions (IDIFs) were obtained from the left ventricle in mice and from an artery close to the kidney in piglet studies. IDIFs were corrected for partial volume effects, plasma fraction from hematocrit values (individually determined for each piglet directly before PET imaging; for mice set to 0.51 according to CD-1 Mouse Hematology sheet from Charles River Laboratories, 2011) and radio-metabolites (measured for piglets, and set to zero for mice). Tri-exponential metabolite-corrected fitted input functions were used for one and two tissue compartment modelling (1-TCM/2-TCM) of time activity curves (TACs) in tissue volumes of interest (VOIs). For both species the specific blood volume was set to 0.15 mL g^−1 in the kidney cortex and 0.128 mL g^−1 in the liver, according to published values.

MCTs [3] = experiment: Compartmental kinetic modelling of PET data in piglets; assay type: in vivo, piglet; conditions: piglets; for K1 / VT / k2: 1-TCM, control; for BPND: (VT(control)/VT(pre-treated)) − 1; for K1 (representative 1-TCM curve fit) / k2 (representative 1-TCM curve fit): control study, Figure S12
Experimental: as §1, §2

MCT1 = target: T1, MCT1 (Mus musculus, UniProt P53986); experiment: MCT1 specific cell uptake of [18F]FACH in 4T1 cells; assay type: cell-based; conditions: control (vehicle), 30 min incubation, 37 °C, pH 7.4
T1 construct: endogenous in cells; host or cells: 4T1 cells (murine triple negative breast cancer), a gift from István Krizbai's group
T1 sequence (P53986 1-493): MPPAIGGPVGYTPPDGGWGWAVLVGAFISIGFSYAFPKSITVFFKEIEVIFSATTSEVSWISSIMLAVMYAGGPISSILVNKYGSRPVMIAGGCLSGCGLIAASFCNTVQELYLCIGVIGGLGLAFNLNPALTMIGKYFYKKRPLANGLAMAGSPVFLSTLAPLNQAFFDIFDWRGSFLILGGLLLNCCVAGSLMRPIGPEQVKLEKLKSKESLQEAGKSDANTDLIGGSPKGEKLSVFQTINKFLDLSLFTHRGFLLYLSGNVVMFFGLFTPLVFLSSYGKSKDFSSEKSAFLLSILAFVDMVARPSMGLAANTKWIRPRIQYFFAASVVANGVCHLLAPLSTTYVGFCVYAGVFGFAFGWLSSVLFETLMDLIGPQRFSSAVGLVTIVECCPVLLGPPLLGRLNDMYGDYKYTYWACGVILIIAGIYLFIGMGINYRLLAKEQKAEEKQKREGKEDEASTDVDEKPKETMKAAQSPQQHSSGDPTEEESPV
T1 sequence (P18572 140-389 partner limits assumed): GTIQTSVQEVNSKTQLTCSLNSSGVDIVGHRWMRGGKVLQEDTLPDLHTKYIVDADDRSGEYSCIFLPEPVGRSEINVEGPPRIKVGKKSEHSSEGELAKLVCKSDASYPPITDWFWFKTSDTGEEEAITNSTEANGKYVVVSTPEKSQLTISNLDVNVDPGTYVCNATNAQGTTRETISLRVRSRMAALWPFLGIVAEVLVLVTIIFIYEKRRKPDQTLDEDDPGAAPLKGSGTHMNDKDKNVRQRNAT
Experimental: Afterwards, the cell culture media was replaced with 500 µL RPMI 1640 supplemented with 20 mM HEPES adjusted to pH 7.4 without FCS and incubated for 16 h at 37 °C and 5% CO2. […] After a 30 min incubation, cells were collected on ice and washed three times with phosphate buffer saline and subsequently dispersed in 500 µL 0.1 N NaOH at room temperature for 10 min. The activity of 100 µL cell solution was measured in a gamma counter and normalized to initial dose. Protein content of 10 µL portions of cell solution was measured with a BCA Kit (Pierce, Thermo Fisher Scientific GmbH) relative to a BSA standard curve, and binding was normalized to units of %ID/ mg protein.

SMILES: CCCN(CCC[18F])c1ccc(/C=C(\C#N)C(=O)O)c(OC)c1 [[^18F]FACH, (E)-2-cyano-3-{4-[(3-[^18F]fluoropropyl)(propyl)amino]-2-methoxyphenyl}acrylic acid]
- apparent rate constant (k0) for [18F]FACH metabolism ([1]; piglets, control): 0.87 ± 0.34 min⁻¹
- parent radiotracer fraction in plasma ([1]; piglets, control, 60 min): 8.8 ± 4.8%
- parent radiotracer fraction in plasma ([1]; piglets, control, five min): 42 ± 13%
- intact radiotracer in urine ([1]; piglets, urine 60 min p.i.): no intact radiotracer was detectable
- parent fraction of [18F]FACH in kidney cortex ([1]; two control piglets, 60 min p.i.): 50.5% and 48.0%
- K1 (MCTs [2]; kidney cortex, control): 0.13 ± 0.06 mL/g/min
- VT (MCTs [2]; kidney cortex, control): 8.60 ± 4.55 mL/g
- k2 (MCTs [2]; kidney cortex, control): 0.02 ± 0.01 min⁻¹
- K1 (2-TCM) (MCTs [2]; kidney cortex, 2-TCM, control): 0.28±0.24 ml/ccm/min
- VND (2-TCM) (MCTs [2]; kidney cortex, 2-TCM, control): 1.77±2.49 ml/ccm
- k2 (2-TCM) (MCTs [2]; kidney cortex, 2-TCM, control): 1.54 ± 2.43 min⁻¹
- k3 (2-TCM) (MCTs [2]; kidney cortex, 2-TCM, control): 0.77 ± 0.78 min⁻¹
- k4 (2-TCM) (MCTs [2]; kidney cortex, 2-TCM, control): 0.02 ± 0.02 min⁻¹
- K1 (representative 1-TCM curve fit) (MCTs [2]; kidney cortex): 0.16 mL/g/min
- k2 (representative 1-TCM curve fit) (MCTs [2]; kidney cortex): 0.04 min⁻¹
- K1 (MCTs [2]; liver, control): 0.49 ± 0.24 mL/g/min
- VT (MCTs [2]; liver, control): 6.47 ± 2.49 mL/g
- k2 (MCTs [2]; liver, control): 0.08 ± 0.02 min⁻¹
- BPND (MCTs [2]; liver, (VT(control)/VT(pre-treated)) − 1): 0.04
- K1 (representative 1-TCM curve fit) (MCTs [2]; liver): 0.40 mL/g/min
- k2 (representative 1-TCM curve fit) (MCTs [2]; liver): 0.09 min⁻¹
- K1 (MCTs [3]; kidney cortex): 0.69 ± 0.11 mL/g/min
- VT (MCTs [3]; kidney cortex): 11.29 ± 1.47 mL/g
- k2 (MCTs [3]; kidney cortex): 0.06 ± 0.01 min⁻¹
- BPND (MCTs [3]; kidney cortex): 5.2
- K1 (representative 1-TCM curve fit) (MCTs [3]; kidney cortex): 0.82 mL/g/min
- k2 (representative 1-TCM curve fit) (MCTs [3]; kidney cortex): 0.08 min⁻¹
- K1 (MCTs [3]; liver): 0.64 ± 0.10 mL/g/min
- VT (MCTs [3]; liver): 5.12 ± 1.27 mL/g
- k2 (MCTs [3]; liver): 0.13 ± 0.05 min⁻¹
- BPND (MCTs [3]; liver): 0.18
- K1 (representative 1-TCM curve fit) (MCTs [3]; liver): 0.67 mL/g/min
- k2 (representative 1-TCM curve fit) (MCTs [3]; liver): 0.14 min⁻¹
- cell-associated radioactivity (MCT1): 4.7 %ID/mg protein
